Biological target: Human FXIIa (Homo sapiens (Human), UniProt P00748)
Experiment: Factor XIIa (FXIIa) inhibitory activity, chromogenic substrate (Pefachrome XIIa) cleavage
Type: biochemical
Details: 10 min pre-incubation, Pefachrome XIIa 400 μM
Method: Factor XIIa (FXIIa) Inhibitory Activity:
In a 96-well clear bottom plate, 80 μl of assay buffer was added to each well. Assay buffer consists of 0.5× Hank's Balanced Salt Solution (Invitrogen), buffered with 25 mM HEPES pH 7.4 (Invitrogen) and 0.5× Tris-buffered saline with Tween-20 0.05% (Santa Cruz Biotechnology). Test compounds were first dissolved in DMSO (Sigma) and then 4 μl were added to test wells containing assay buffer. Serial dilutions using an automated multi-channel pipette were used to generate a concentration range of approximately 1-100 μM. Human FXIIa (Enzyme Research Labs) was diluted in assay buffer to a final concentration of 12.5 nM. 80 μl of this enzyme solution was added to the assay wells. The enzyme/compound mixtures were incubated for 10 minutes at room temperature. Chromogenic substrate (Pefachrome XIIa; Enzyme Research Labs) was added to assay wells at a final concentration of 400 μM. The assay plate was spun for 1 minute at 1500 g and then read at 37° C. in a SpectraMax M2 plate reader (λ=405 nm). Activity was quantified as the rate of change in absorbance, which corresponds to the rate of substrate cleavage. IC50 values were determined as the concentration of inhibitor that produced 50% of the rate of change of control wells without any inhibitor. For compounds with activity <1 μM, the assay was repeated with a lower concentration range, typically from 10-1000 nM.

Chain of Human FXIIa (P00748 373-615): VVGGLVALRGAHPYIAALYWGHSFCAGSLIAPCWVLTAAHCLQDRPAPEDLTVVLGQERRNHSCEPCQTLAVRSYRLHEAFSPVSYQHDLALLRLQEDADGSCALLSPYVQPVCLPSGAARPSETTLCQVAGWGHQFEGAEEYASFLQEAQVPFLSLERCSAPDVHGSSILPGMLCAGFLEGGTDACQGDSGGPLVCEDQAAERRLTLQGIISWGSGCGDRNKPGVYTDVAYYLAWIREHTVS
Chain of Human FXIIa (P00748 20-372 partner): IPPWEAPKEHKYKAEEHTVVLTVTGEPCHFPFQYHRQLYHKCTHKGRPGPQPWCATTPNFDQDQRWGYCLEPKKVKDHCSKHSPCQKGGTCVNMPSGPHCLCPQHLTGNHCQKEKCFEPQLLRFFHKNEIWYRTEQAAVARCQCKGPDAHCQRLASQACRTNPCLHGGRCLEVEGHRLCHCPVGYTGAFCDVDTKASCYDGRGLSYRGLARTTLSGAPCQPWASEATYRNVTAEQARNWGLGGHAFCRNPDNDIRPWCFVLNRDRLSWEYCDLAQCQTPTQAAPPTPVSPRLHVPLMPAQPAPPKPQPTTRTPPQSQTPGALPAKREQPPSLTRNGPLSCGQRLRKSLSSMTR

IC50	Structure (SMILES)
7 µM	CC(C)S(=O)(=O)N1CCc2c(N)nn(C(=O)C3CCNc4ccc(F)cc43)c2C1 (centres unmarked) [Example 137, (3-amino-6-(isopropyl-sulfonyl)-4,5,6,7-tetrahydro-pyrazolo[3,4-c]pyridin-1-yl)(6-fluoro-1,2,3,4-tetrahydro-quinolin-4-yl)methanone]
> 80 µM	CS(=O)(=O)N1CCc2c(N)nn(C(=O)C3CCNc4ccc(-c5ccccc5)cc43)c2C1 (centres unmarked) [Example 50, (3-amino-6-(methylsulfonyl)-4,5,6,7-tetrahydropyrazolo[3,4-c]pyridin-1-yl)(6-phenyl-1,2,3,4-tetrahydroquinolin-4-yl)methanone]
> 25 µM	Cc1cccc2c1NCC[C@H]2C(=O)n1nc2c(c1N)CCN(CCO)C2 (single isomer, unassigned) [Example 205, (R*)-(3-amino-6-(2-hydroxyethyl)-4,5,6,7-tetrahydro-2H-pyrazolo[3,4-c]pyridin-2-yl)(8-methyl-1,2,3,4-tetrahydro-quinolin-4-yl)methanone]
17 µM	Cc1cccc2c1NCCC2C(=O)n1nc2c(c1N)CCN(S(C)(=O)=O)C2 (single isomer, unassigned) [Example 36, (R*)-(3-amino-6-(methylsulfonyl)-4,5,6,7-tetrahydropyrazolo[3,4-c]pyridin-2-yl)(8-methyl-1,2,3,4-tetrahydroquinolin-4-yl)methanone]
10 µM	CCN1CCc2c(nn(C(=O)[C@@H]3CCNc4ccc(F)cc43)c2N)C1 (single isomer, unassigned) [Example 166, (R*)-(3-amino-6-ethyl-4,5,6,7-tetrahydro-pyrazolo[3,4-c]pyridin-2-yl)(6-fluoro-1,2,3,4-tetrahydro-quinolin-4-yl)methanone]
> 80 µM	CS(=O)(=O)N1CCc2c(N)nn(C(=O)C3CCNc4ncccc43)c2C1 (centres unmarked) [Example 42, (3-amino-6-(methylsulfonyl)-4,5,6,7-tetrahydropyrazolo[3,4-c]pyridin-1-yl)(1,2,3,4-tetrahydro-1,8-naphthyridin-4-yl)methanone]
35 µM	CS(=O)(=O)N1CCc2c(nn(C(=O)C3CCNc4c(Cl)cccc43)c2N)C1 (single isomer, unassigned) [Example 59, (R*)-(3-amino-6-(methylsulfonyl)-4,5,6,7-tetrahydropyrazolo[3,4-c]pyridin-2-yl)(8-chloro-1,2,3,4-tetrahydroquinolin-4-yl)methanone]
8 µM	CCN1CCc2c(nn(C(=O)[C@@H]3CCNc4c(C)cccc43)c2N)C1 (single isomer, unassigned) [Example 174, (R*)-(3-amino-6-ethyl-4,5,6,7-tetrahydro-pyrazolo[3,4-c]pyridin-2-yl)(8-methyl-1,2,3,4-tetrahydro-quinolin-4-yl)methanone]
60 µM	Cc1cccc2c1NCCC2C(=O)n1nc(N)c2c1CNCC2 (centres unmarked) [Example 178, (3-amino-4,5,6,7-tetrahydro-pyrazolo[3,4-c]pyridin-1-yl)(8-methyl-1,2,3,4-tetrahydro-quinolin-4-yl)methanone]
70 µM	Cc1cc(F)cc2c1NCCC2C(=O)n1nc2c(c1N)CCOC2 (single isomer, unassigned) [Example 77, (R*)-(3-amino-4,5-dihydropyrano[3,4-c]pyrazol-2(7H)-yl)(6-fluoro-8-methyl-1,2,3,4-tetrahydroquinolin-4-yl)methanone]
60 µM	CS(=O)(=O)N1CCc2c(N)nn(C(=O)C3CCNc4c(Cl)cccc43)c2C1 (centres unmarked) [Example 58, (3-amino-6-(methylsulfonyl)-4,5,6,7-tetrahydropyrazolo[3,4-c]pyridin-1-yl)(8-chloro-1,2,3,4-tetrahydroquinolin-4-yl)methanone]
> 100 µM	CCc1cccc2c1NCCC2C(=O)n1nc(N)c2c1CN(S(C)(=O)=O)CC2 (centres unmarked) [Example 66, (3-amino-6-(methylsulfonyl)-4,5,6,7-tetrahydropyrazolo[3,4-c]pyridin-1-yl)(8-ethyl-1,2,3,4-tetrahydroquinolin-4-yl)methanone]
> 65 µM	CCc1cc(C)c2c(c1)C(C(=O)n1nc(N)c3c1CN(S(C)(=O)=O)CC3)CCN2 (centres unmarked) [Example 56, (3-amino-6-(methylsulfonyl)-4,5,6,7-tetrahydropyrazolo[3,4-c]pyridin-1-yl)(6-ethyl-8-methyl-1,2,3,4-tetrahydroquinolin-4-yl)methanone]
11 µM	Cc1cccc2c1NCCC2C(=O)n1nc(N)c2c1CN(S(=O)(=O)C1CCC1)CC2 (centres unmarked) [Example 184]
> 60 µM	COc1ccc2c(c1)C(C(=O)n1nc(N)c3c1CN(S(C)(=O)=O)CC3)CCN2 (centres unmarked) [Example 23, (3-amino-6-(methylsulfonyl)-4,5,6,7-tetrahydropyrazolo[3,4-c]pyridin-1-yl)(6-methoxy-1,2,3,4-tetrahydroquinolin-4-yl)methanone]
1.2 µM	Cc1cc2c(C(=O)n3nc(N)c4c3CN(S(C)(=O)=O)CC4)cccc2[nH]1 [Example 102, (3-amino-6-(methylsulfonyl)-4,5,6,7-tetrahydro-pyrazolo[3,4-c]pyridin-1-yl)(2-methyl-1H-indol-4-yl)methanone]
30 µM	CS(=O)(=O)N1CCc2c(N)nn(C(=O)C3CCNc4ccc(F)cc43)c2C1 (centres unmarked) [Example 17, (3-amino-6-(methylsulfonyl)-4,5,6,7-tetrahydropyrazolo[3,4-c]pyridin-1-yl)(6-fluoro-1,2,3,4-tetrahydroquinolin-4-yl)methanone]
50 µM	Cc1cc2c(C(=O)n3nc(N)c4c3CN(C(=O)OC(C)(C)C)CC4)cccc2[nH]1 [Example 8, tert-butyl 3-amino-1-(2-methyl-1H-indole-4-carbonyl)-4,5-dihydro-1H-pyrazolo[3,4-c]pyridine-6(7H)-carboxylate]
> 90 µM	Cc1ccc2c(c1)C(C(=O)n1nc(N)c3c1CN(S(C)(=O)=O)CC3)CCN2 (centres unmarked) [Example 13, (3-amino-6-(methylsulfonyl)-4,5,6,7-tetrahydropyrazolo[3,4-c]pyridin-1-yl)(6-methyl-1,2,3,4-tetrahydroquinolin-4-yl)methanone]
17 µM	Nc1nn(C(=O)C2CCNc3ccc(F)cc32)c2c1CCN(S(=O)(=O)CC(F)F)C2 (centres unmarked) [Example 143, (3-amino-6-(2,2-difluoroethyl-sulfonyl)-4,5,6,7-tetrahydro-pyrazolo[3,4-c]pyridin-1-yl)(6-fluoro-1,2,3,4-tetrahydro-quinolin-4-yl)methanone]
0.06 µM	Cc1cc2c(C(=O)n3nc4c(c3N)CNCC4)cccc2[nH]1 [Example 2, (3-amino-4,5,6,7-tetrahydropyrazolo[4,3-c]pyridin-2-yl)(2-methyl-1H-indol-4-yl)methanone]
80 µM	COC(=O)N1CCc2c(c(N)nn2C(=O)C2CCNc3ccccc32)C1 (centres unmarked) [Example 88, methyl 3-amino-1-(1,2,3,4-tetrahydro-quinoline-4-carbonyl)-6,7-dihydro-1H-pyrazolo[4,3-c]pyridine-5(4H)-carboxylate]
12 µM	CCN1CCc2c(N)nn(C(=O)C3CCNc4ccc(F)cc43)c2C1 (centres unmarked) [Example 164, (3-amino-6-ethyl-4,5,6,7-tetrahydro-pyrazolo[3,4-c]pyridin-1-yl)(6-fluoro-1,2,3,4-tetrahydro-quinolin-4-yl)methanone]
1.4 µM	COc1ccc2c(c1)C(C(=O)n1nc3c(c1N)CCN(S(C)(=O)=O)C3)CCN2 (centres unmarked) [Example 22, (3-amino-6-(methylsulfonyl)-4,5,6,7-tetrahydropyrazolo[3,4-c]pyridin-2-yl)(6-methoxy-1,2,3,4-tetrahydroquinolin-4-yl)methanone]
0.07 µM	Cc1cc(F)cc2c1NCC[C@@H]2C(=O)n1nc2c(c1N)CNCC2 (single isomer, unassigned) [Example 82, (S*)-(3-amino-4,5,6,7-tetrahydropyrazolo[4,3-c]pyridin-2-yl)(6-fluoro-8-methyl-1,2,3,4-tetrahydroquinolin-4-yl)methanone]
50 µM	Cc1cc2c(C(=O)n3nc(N)c4c3CN(Cc3ccccc3)CC4)cccc2[nH]1 [Example 11, (3-amino-6-benzyl-4,5,6,7-tetrahydropyrazolo[3,4-c]pyridin-1-yl)(2-methyl-1H-indol-4-yl)methanone]
2.5 µM	Cc1cc(F)cc2c1NCCC2C(=O)n1nc2c(c1N)CCN(S(C)(=O)=O)C2 (single isomer, unassigned) [Example 54, (R*)-(3-amino-6-(methylsulfonyl)-4,5,6,7-tetrahydropyrazolo[3,4-c]pyridin-2-yl)(6-fluoro-8-methyl-1,2,3,4-tetrahydroquinolin-4-yl)methanone]
> 70 µM	CCCN1CCc2c(N)nn(C(=O)C3CCNc4ccc(F)cc43)c2C1 (centres unmarked) [Example 150, (3-amino-6-propyl-4,5,6,7-tetrahydro-pyrazolo[3,4-c]pyridin-1-yl)(6-fluoro-1,2,3,4-tetrahydro-quinolin-4-yl)methanone]
0.04 µM	Cc1cccc2c1NCC[C@@H]2C(=O)n1nc2c(c1N)CCN(CCO)C2 (single isomer, unassigned) [Example 204, (S*)-(3-amino-6-(2-hydroxyethyl)-4,5,6,7-tetrahydro-2H-pyrazolo[3,4-c]pyridin-2-yl)(8-methyl-1,2,3,4-tetrahydro-quinolin-4-yl)methanone]

Source: US11312723B2, “Pyranopyrazole and pyrazolopyridine immunomodulators for treatment of autoimmune diseases” (The Rockefeller University, priority 2017, dated 2022)
